Results: patent US12492202B2, “Macrocyclic PAD4 inhibitors useful as immunosuppressant” (BRISTOL-MYERS SQUIBB COMPANY, priority 2020, dated 2025)
pIC50: −log10 of the molar value.

Molecular target: human PAD4 (hPAD4) (Homo sapiens (Human), UniProt Q9UM07)
Assay: RFMS Human PAD4 Functional Assay
Type: biochemical
Conditions: rapid-fire mass spectrum (RFMS) assay; 5 nM hPAD4 enzyme, 250 μM BAEE, 30 min preincubation at 37° C.
Description: RFMS Human PAD4 Functional Assay: Compounds were solubilized in 100% DMSO to achieve a 10 mM compound concentration. Compound stock solutions were stored at RT. A series of dilutions were prepared in DMSO and mixed 8 times with 20 μL mixing volume. Final top concentration of compound in the assay is 50 μM. Final assay conditions were as follows: • Reaction volume: 26 μl • Assay buffer: 25 mM hepes, pH 7.5, 5 mM NaCl, 1 mM DTT, 0.2 mg/ml BSA, 0.01% CHAPS, 50 μM Calcium, and 5 μM TPEN • Final concentrations: 5 nM hPAD4 enzyme, 250 μM BAEE, and 0.5% DMSO • Total incubation time: 30 mins compound and enzyme preincubation at 37° C., 90 min enzyme/substrate reaction, 30 min reaction with phenyl glyoxal at 37° C. • Stop solution: 40 μl 5% TCA in ACN 0.13 μL of compound solution was added to 13 μL of 10 nM PAD4 in assay buffer. After 30 min 13 μl of 500 μM of BAEE was added in 25 mM hepes, pH 7.5, 5 mM NaCl, 1 mM DTT, 0.2 mg/ml BSA, 0.01% CHAPS, 50 μM Calcium, 5 μM TPEN was added and the reaction incubated for 90 min at 37° C. The enzymatic reaction was quenched by addition of 15 μl of 6.1N TCA, 100% Final Concentration is 20%, 35 μl of 8.5 mM phenyl glyoxal (final concentration 4 mM) is then added and the reaction is incubated for 30 min at 37° C. After 30 minutes the plates are spun down to remove all precipitate. The enzyme reaction was quenched with an equal volume of methanol containing internal standard (modified citrulline). Samples were loaded onto the Rapid Fire RF300 system (Agilent) wherein they were first sipped for 1000 ms and then directly loaded to a C18 separations cartridge using a mixture of acetonitrile containing 0.01% formic acid for 3000 ms desalting. The flow rate of the mobile phase was 1.5 ml/min. Once the samples were eluted from the cartridge, a mobile phase of acetonitrile containing 0.01% formic acid was used to move the samples into the mass spectrometer for 4000 ms at a flow rate of 1.25 ml/min/Sciex API5500 triple quadrupole mass spectrometer (Applied Biosystems) equipped with ESI was used to analyze the peptidyl citrulline and internal standard ions. MRM transition of product and internal standard were monitored at m/z 424.5 to 350.4 and m/z 293 to 247 respectively. The dwell time for each transition was set at 200 ms, and the ESI voltage was used at 5500 with a source temperature of 400° C. Extracted ion peaks for each transition were integrated using the Rapid Fire Integrator software. Peak area of analyte was normalized with internal standard).

Sequence of human PAD4 (hPAD4) (Q9UM07 whole entry): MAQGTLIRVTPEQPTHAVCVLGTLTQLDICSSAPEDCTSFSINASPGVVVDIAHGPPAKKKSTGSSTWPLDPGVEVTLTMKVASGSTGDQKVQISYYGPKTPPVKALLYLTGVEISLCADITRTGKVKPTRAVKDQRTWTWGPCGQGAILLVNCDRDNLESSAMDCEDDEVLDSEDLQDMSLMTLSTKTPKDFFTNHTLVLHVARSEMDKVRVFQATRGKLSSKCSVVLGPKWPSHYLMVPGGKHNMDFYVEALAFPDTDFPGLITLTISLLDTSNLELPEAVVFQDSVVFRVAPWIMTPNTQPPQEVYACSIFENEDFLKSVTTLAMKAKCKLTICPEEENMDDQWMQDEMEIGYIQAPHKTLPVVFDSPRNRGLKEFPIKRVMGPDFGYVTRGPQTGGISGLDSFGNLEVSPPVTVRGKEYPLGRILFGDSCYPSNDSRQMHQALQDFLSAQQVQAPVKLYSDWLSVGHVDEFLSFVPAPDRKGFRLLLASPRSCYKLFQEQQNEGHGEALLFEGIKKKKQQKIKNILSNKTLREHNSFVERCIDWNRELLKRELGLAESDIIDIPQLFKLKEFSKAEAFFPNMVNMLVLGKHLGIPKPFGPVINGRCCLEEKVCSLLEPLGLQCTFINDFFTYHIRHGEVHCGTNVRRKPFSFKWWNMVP

Row | Compound | pIC50
1 | COc1cc(C(=O)N2CC3CCC2[C@@H]3N)cc2nc3n(c12)Cc1ccn(n1)-c1ccccc1OCCCn1c-3cc2cccnc21 (stereo partly drawn) [Example 17, ((7R)-7-amino-2-azabicyclo[2.2.1]heptan-2-yl)((E)-2^7-methoxy-1^1H,2^1H,4^1H-6-oxa-1,2(2,1)-dipyrrolo[2,3-b]pyridina-4(3,1)-pyrazola-5(1,2)-benzenacyclononaphane-2^5-yl) methanone] | 7.96
2 | COc1cc(C(=O)N2CCC[C@@H](N)C2)cc2nc3n(c12)Cc1cnn(c1)CCCCCCn1c-3cc2cccnc21 [Example 11, ((R)-3-aminopiperidin-1-yl)((Z)-2^7-methoxy-1^1H,2^1H,4^1H-1,2(2,1)-dipyrrolo[2,3-b]pyridina-4(4,1)-pyrazolacyclodecaphane-2^5-yl)methanone] | 4.73
3 | COc1cc(C(=O)N2CC3CCC2[C@@H]3N)cc2nc3n(c12)Cc1cnn(c1)CCCCCCn1c-3cc2ccccc21 (stereo partly drawn) [Example 4, ((7R)-7-amino-2-azabicyclo[2.2.1]heptan-2-yl)((Z)-2^7-methoxy-1^1H,2^1H,4^1H-2(2,1)-benzo[d]imidazola-1(2,1)-indola-4(4,1)-pyrazolacyclodecaphane-2^5-yl)methanone] | 7.62
4 | COc1cc(C(=O)N2C[C@H](N)C[C@@H](F)C2)cc2nc3n(c12)Cc1cccc(c1)[C@H](O)[C@H](O)CCCCn1c-3cc2cccnc21 (single isomer, unassigned) [Example 50] | 6.08
5 | COc1cc(C(=O)N2C[C@H](N)C[C@@H](F)C2)cc2nc3n(c12)Cc1cnn(c1)-c1ccccc1OCCCn1c-3cc2cccnc21 [Example 15, ((3R,5R)-3-amino-5-fluoropiperidin-1-yl)((Z)-2^7-methoxy-1^1H,2^1H,4^1H-6-oxa-1,2(2,1)-dipyrrolo[2,3-b]pyridina-4(4,1)-pyrazola-5(1,2)-benzenacyclononaphane-2^5-yl)methanone] | 7.40
6 | COc1cc(C(=O)N2C[C@H](N)C[C@@H](F)C2)cc2nc3n(c12)Cc1cnn(c1)CCCCCCCn1c-3cc2cccnc21 [Example 9, ((3R,5R)-3-amino-5-fluoropiperidin-1-yl)((Z)-2^7-methoxy-1^1H,2^1H,4^1H-1,2(2,1)-dipyrrolo[2,3-b]pyridina-4(4,1)-pyrazolacycloundecaphane-2^5-yl)methanone] | 6.21
7 | COc1cc(C(=O)N2CC3CCC2[C@@H]3N)cc2nc3n(c12)Cc1cnn(c1)CCCCCn1c-3cc2ccccc21 (stereo partly drawn) [Example 1, ((7R)-7-Amino-2-azabicyclo[2.2.1]heptan-2-yl)((Z)-2^7-methoxy-1^1H,2^1H,4^1H-2(2,1)-benzo[d]imidazola-1(2,1)-indola-4(4,1)-pyrazolacyclononaphane-2^5-yl)methanone] | 6.59
8 | COc1cc(C(=O)N2CC3CCC2[C@@H]3N)cc2nc3n(c12)Cc1cnn(c1)CCCCCCn1c-3cc2cccnc21 (stereo partly drawn) [Example 2, ((7R)-7-Amino-2-azabicyclo[2.2.1]heptan-2-yl)((Z)-2^7-methoxy-1^1H,2^1H,4^1H-1,2(2,1)-dipyrrolo[2,3-b]pyridina-4(4,1)-pyrazolacyclodecaphane-2^5-yl)methanone] | 5.86
9 | COc1cc(C(=O)N2CC3CCC2[C@@H]3N)cc2nc3n(c12)Cc1cc(C(N)=O)cc(c1)-c1ccccc1CCCCn1c-3cc2cccnc21 (stereo partly drawn) [Example 29, 2^5-((1R,4R,7R)-7-amino-2-azabicyclo[2.2.1]heptane-2-carbonyl)-2^7-methoxy-1^1H,2^1H-1,2(2,1)-dipyrrolo[2,3-b]pyridina-4(1,3),5(1,2)-dibenzenacyclononaphane-4^5-carboxamide] | 7.23
10 | COc1cc(C(=O)N2C[C@H]3CC[C@@H]2[C@@H]3N)cc2nc3n(c12)Cc1cccc(c1)[C@@H]1CN(C)C[C@@H]1CCCCn1c-3cc2cccnc21 [Example 43, ((1R,4R,7R)-7-amino-2-azabicyclo[2.2.1]heptan-2-yl)((5^3R,5^4R)-2^7-methoxy-5′-methyl-1′H,2^1H-1,2(2,1)-dipyrrolo[2,3-b]pyridina-5(3,4)-pyrrolidina-4(1,3)-benzenacyclononaphane-2^5-yl)methanone] | 6.82
11 | COc1cc(C(=O)N2C[C@H](N)C[C@@H](F)C2)cc2nc3n(c12)Cc1cnn(c1)CCCCCCn1c-3cc2ccccc21 [Example 13, ((3R,5R)-3-amino-5-fluoropiperidin-1-yl)((E)-2^7-methoxy-1^1H,2^1H,4^1H-2(2,1)-benzo[d]imidazola-1(2,1)-indola-4(3,1)-pyrazolacyclodecaphane-2^5-yl) methanone] | 7.18
12 | COc1cc(C(=O)N2CC3CCC2[C@@H]3N)cc2nc3n(c12)Cc1cnn(c1)-c1ccccc1OCCCn1c-3cc2cccnc21 (stereo partly drawn) [Example 16, ((7R)-7-amino-2-azabicyclo[2.2.1]heptan-2-yl)((Z)-2^7-methoxy-1^1H,2^1H,4^1H-6-oxa-1,2(2,1)-dipyrrolo[2,3-b]pyridina-4(4,1)-pyrazola-5(1,2)-benzenacyclononaphane-2^5-yl)methanone] | 7.82
13 | COc1cc(C(=O)N2CC3CCC2[C@@H]3N)cc2nc3n(c12)Cc1cccc(c1)-c1ccccc1CCCCn1c-3cc2ccccc21 (stereo partly drawn) [Example 22, ((1R,4R,7R)-7-amino-2-azabicyclo[2.2.1]heptan-2-yl)(2^7-methoxy-1^1H,2^1H-2(2,1)-benzo[d]imidazola-1(2,1)-indola-4(1,3),5(1,2)-dibenzenacyclononaphane-2^5-yl)methanone] | 7.28
14 | COc1cc(C(=O)N2C[C@H]3CC[C@@H]2[C@@H]3N)cc2nc3n(c12)Cc1cccc(c1)CCCCCCn1c-3cc2cccnc21 [Example 42, ((1R,4R,7R)-7-amino-2-azabicyclo[2.2.1]heptan-2-yl)(27-methoxy-11H,21H-1,2(2,1)-dipyrrolo[2,3-b]pyridina-4(1,3)-benzenacyclodecaphane-25-yl)methanone] | 7.30
15 | COc1cc(C(=O)N2C[C@H](N)C[C@@H](F)C2)cc2nc3n(c12)Cc1cncc(c1)-c1ccccc1CCCCn1c-3cc2cccnc21 [Example 30, ((3R,5R)-3-amino-5-fluoropiperidin-1-yl)(2^7-methoxy-1^1H, 2^1H-1,2(2,1)-dipyrrolo[2,3-b]pyridina-4(3,5)-pyridina-5(1,2)-benzenacyclononaphane-2^5-yl)methanone] | 8.40
16 | COc1cc(C(=O)N2C[C@H](N)C[C@@H](F)C2)cc2nc3n(c12)Cc1cccc(c1)-c1ccccc1CCCCn1c-3cc2cccnc21 [Example 23, ((3R,5R)-3-amino-5-fluoropiperidin-1-yl)(2^7-methoxy-1^1H,2^1H,2(2,1)-dipyrrolo[2,3-b]pyridina-4(1,3),5(1,2)-dibenzenacyclononaphane-2^5-yl)methanone] | 6.96
17 | COc1cc(C(=O)N2C[C@H]3CC[C@@H]2[C@@H]3N)cc2nc3n(c12)Cc1cccc(c1)[C@H](O)[C@H](O)CCCCn1c-3cc2cccnc21 (relative stereo) [Example 48, ((1R,4R,7R)-7-amino-2-azabicyclo[2.2.1]heptan-2-yl)((5S,6R)-5,6-dihydroxy-27-methoxy-1^1H,2^1H-1,2(2,1)-dipyrrolo[2,3-b]pyridina-4(1,3)-benzenacyclodecaphane-25-yl)methanone] | 7.04
18 | COc1cc(C(=O)N2C[C@H](N)C[C@@H](F)C2)cc2nc3n(c12)Cc1ccn(n1)-c1ccccc1OCCCn1c-3cc2ccccc21 [Example 20, ((3R,5R)-3-amino-5-fluoropiperidin-1-yl)((E)-2^7-methoxy-1^1H,2^1H,4^1H-6-oxa-2(2,1)-benzo[d]imidazola-l(2,1)-indola-4(3,1)-pyrazola-5(1,2)-benzenacyclononaphane-2^5-yl)methanone] | 7.89
19 | COc1cc(C(=O)N2C[C@H](N)C[C@@H](F)C2)cc2nc3n(c12)Cc1cncc(c1)-c1ccccc1CCCCn1c-3cc2ccc(C(C)(C)O)nc21 [Example 52, ((3R,5R)-3-Amino-5-fluoropiperidin-1-yl)(1^6-(2-hydroxypropan-2-yl)-2^7-methoxy-1^1H,2^1H-1,2(2,1)-dipyrrolo[2,3-b]pyridina-4(3,5)-pyridina-5(1,2)-benzenacyclononaphane-2^5-yl)methanone] | 8.10
20 | COc1cc(C(=O)N2C[C@H](N)C[C@@H](F)C2)cc2nc3n(c12)Cc1cncc(c1)-c1ccccc1OCCCn1c-3cc2cccnc21 [Example 35, ((3R,5R)-3-amino-5-fluoropiperidin-1-yl)(2^7-methoxy-1^1H,2^1H-6-oxa-1,2(2,1)-dipyrrolo[2,3-b]pyridina-4(3,5)-pyridina-5(1,2)-benzenacyclononaphane-2^5-yl)methanone] | 7.85
21 | COc1cc(C(=O)N2C[C@H](N)C[C@@H](F)C2)cc2nc3n(c12)Cc1cnn(c1)CCCCCCn1c-3cc2cccnc21 [Example 8, ((3R,5R)-3-amino-5-fluoropiperidin-1-yl)((Z)-2^7-methoxy-1^1H,2^1H,4^1H-1,2(2,1)-dipyrrolo[2,3-b]pyridina-4(4,1)-pyrazolacyclodecaphane-2^5-yl)methanone] | 6.56
22 | COc1cc(C(=O)N2C[C@H]3CC[C@@H]2[C@@H]3N)cc2nc3n(c12)Cc1cccc(c1)[C@H](O)[C@H](O)CCCCn1c-3cc2cccnc21 (single isomer, unassigned) [Example 45] | 7.51
23 | COc1cc(C(=O)N2C[C@H](N)C[C@@H](F)C2)cc2nc3n(c12)Cc1cccc(c1)[C@H](O)[C@H](O)CCCCn1c-3cc2cccnc21 (single isomer, unassigned) [Example 49] | 6.53
24 | COc1cc(C(=O)N2CC3CCC2[C@@H]3N)cc2nc3n(c12)Cc1cnn(c1)-c1ccccc1OCCCn1c-3cc2ccccc21 (stereo partly drawn) [Example 14, ((7R)-7-amino-2-azabicyclo[2.2.1]heptan-2-yl)((Z)-2^7-methoxy-1^1H,2^1H,4^1H-6-oxa-2(2,1)-benzo[d]imidazola-1(2,1)-indola-4(4,1)-pyrazola-5(1,2)-benzenacyclononaphane-2^5-yl) methanone] | 7.96
25 | COc1cc(C(=O)N2CC3CCC2[C@@H]3N)cc2nc3n(c12)Cc1cccc(c1)/C=C\CCCCn1c-3cc2cccnc21 (stereo in doubt) [Example 41, ((1R,4R,7R)-7-Amino-2-azabicyclo[2.2.1]heptan-2-yl)((Z)-27-methoxy-11H,21H-1,2(2,1)-dipyrrolo[2,3-b]pyridina-4(1,3)-benzenacyclodecaphan-5-en-25-yl)methanone] | 7.35
